From patent publication US20260001879A1, “COMPOUNDS AS MYT1 INHIBITORS” (WIGEN BIOMMEDICINE TECHNOLOGY (SHANGHAI) CO., LTD., priority 2022, published 2026)
Values after ≈ are worked out from the molar mass of the structure shown. Like-named read-outs stand apart in the source and are kept apart here.

Experiments:
recombinant protein MYT1 = recombinant protein MYT1 (Homo sapiens (Human), UniProt Q99640); experiment: In vitro assay for inhibiting MYT1 kinase activity (ADP-GLO); type: biochemical; settings: 10 μM ATP, read-out: Inhibitory activity against recombinant protein MYT1 IC50
recombinant protein MYT1, sequence (Q99640 whole entry): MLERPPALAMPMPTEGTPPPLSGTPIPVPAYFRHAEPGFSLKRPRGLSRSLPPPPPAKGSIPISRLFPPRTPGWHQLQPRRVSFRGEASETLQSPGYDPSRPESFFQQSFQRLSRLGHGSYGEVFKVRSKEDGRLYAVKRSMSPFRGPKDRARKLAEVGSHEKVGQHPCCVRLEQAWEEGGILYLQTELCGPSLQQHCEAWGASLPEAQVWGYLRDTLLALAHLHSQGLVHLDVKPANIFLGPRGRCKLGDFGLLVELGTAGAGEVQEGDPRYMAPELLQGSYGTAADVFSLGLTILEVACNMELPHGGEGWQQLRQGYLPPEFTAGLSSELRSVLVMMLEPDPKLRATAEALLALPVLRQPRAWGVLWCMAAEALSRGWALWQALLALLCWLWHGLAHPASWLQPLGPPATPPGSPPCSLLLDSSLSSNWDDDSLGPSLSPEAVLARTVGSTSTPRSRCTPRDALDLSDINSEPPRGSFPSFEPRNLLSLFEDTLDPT
Description: Recombinant MYT1 protein and the compounds were pre-incubated at room temperature for 15 min, and 10 μM ATP was then added to start the reaction. The mixture was incubated at room temperature for another 60 min, and the ADP-GLO reagent from Promega was then added. The resulting mixture was incubated in the dark for 40 min, a detection solution was then added, and the mixture was incubated for another 45-60 min. The chemiluminescence was determined using ENVISION. The inhibition rate and IC50 were calculated compared to the DMSO group.

MIA PaCa-2 cells [1] = experiment: In vitro anti-proliferative activity against MIA PaCa-2 cells (compound alone); type: cell-based; settings: intracellular ATP content
Description: MIA PaCa-2 cells were seeded on a 384-well plate at 3000 cells/well. After overnight adherence culture, DMSO or the compounds serially diluted 1:5 from 10 μM were added. The viability was assessed 72 h after dosing by measuring the intracellular ATP content. The inhibition percentage of viable cells by the compounds was calculated by comparing with the DMSO group, and the IC50 value was calculated.

MIA PaCa-2 cells [2] = experiment: In vitro anti-proliferative activity in combination with gemcitabine against MIA PaCa-2 cells; type: cell-based
Description: MIA PaCa-2 cells were seeded on a 384-well plate at 3000 cells/well, and 20 nM gemcitabine was added. After overnight adherence culture, DMSO or the compounds serially diluted 1:5 from 1000 nM were added. The viability was assessed 72 h after dosing by measuring the intracellular ATP content. The inhibition percentage of viable cells by the compounds was calculated by comparing with the DMSO group, and the IC50 value was calculated.

[3] = In vivo pharmacokinetic experiment in mice; set-up: species or system CD-1 female mice; settings: mouse
Description: CD-1 female mice aged 7 to 10 weeks were intravenously administered and orally administered at a dose of 2 mg/kg and 10 mg/kg, respectively. The mice were fasted for at least 12 h before the administration and given food 4 h after the administration, and they were given ad libitum access to water during the experiment. On the day of the experiment, animals in the intravenous group were administered the corresponding compound by single injection via the tail vein at an administration volume of 10 mL/kg. Animals in the oral group were administered the corresponding compound by single intragastric injection at an administration volume of 10 mL/kg. The animals were weighed before administration, and the administration volume was calculated according to the body weight. The sample collection time was 0.083 h (injection group), 0.167 h, 0.5 h, 1 h, 2 h, 4 h, 8 h, and 24 h. About 200 μL of whole blood was collected through the submaxillary venous plexus at each time point and used to prepare plasma for concentration determination by high-performance liquid chromatography-tandem mass spectrometry (LC-MS/MS). All animals were euthanized with CO2 anesthesia after the PK samples were collected at the last time point. The plasma concentrations were processed using a non-compartmental model of Phoenix WinNonlin™ version 8.3 (Certara) pharmacokinetic software, and the pharmacokinetic parameters were calculated using a linear-log trapezoidal method.

MDCK-MDR1 = experiment: in vitro; settings: MDCK-MDR1
Description: (§1) In vitro passive permeability or the ability to serve as a P-glycoprotein (P-gp) transport substrate was tested using MDCK cells (MDCK wild type) or MDCK cells stably transduced with MDRI (MDCK-MDRI), respectively. The permeability experiment was performed in duplicate in a transwell system at a single concentration (5 μM). The cells were incubated for […] Apical-to-basolateral (A to B, A-B) transport and basolateral-to-apical (B to A, B-A) transport of the corresponding compound were determined, and the permeation rate (apparent permeability) (Papp×10^−6 cm/sec) and efflux ratio (Papp (B−A)/Papp (A−B)) of the test compound were calculated.

MDCK-Wild type = experiment: in vitro
Description: as §1

[4] = In vitro solubility experiment; type: physicochemical; settings: for solubility at 0.5 h: organic solvent or mixture, thermodynamic from solid
Description: (§2) Preparation of a standard curve: 10.01 mg of sample was weighed out and placed in a volumetric flask, and the volume was brought to 10 mL with acetonitrile/water (v/v, 9/1) to prepare 1.001 mg/mL of standard solution; the standard solution was then serially diluted to 0.5005 mg/mL, 0.1001 mg/mL, 0.05005 mg/mL, 0.01001 mg/mL, and 0.001001 mg/mL to generate the standard curve, and a linear equation was fitted by taking the peak area of the sample as a vertical axis and the concentration as a horizontal axis.
(§3) Solubility and stability test: 15 mg of sample was added to 3 mL of vehicle (FaSSIF, FeSSIF, SGF, or water) to prepare a corresponding suspension at a target concentration of 5 mg/mL. The prepared suspension was stirred on a shaker (800 rpm) at 37° C. for 0.5 h, and the suspension was then filtered. The filtrate was diluted with a diluent to a corresponding multiple so that the peak height could not exceed the standard curve, and the solubility and purity were detected using HPLC.

[5] = In vitro stability experiment (HPLC purity after stirring in vehicle); type: physicochemical
Description: as §2, §3

in vitro = settings: dog, MDCK
Description: as §1

[6] = system: P-glycoprotein (P-gp, MDR1); experiment: in vitro; settings: dog
Description: as §1

[7] = read-out: Anti-proliferative activity against MIA PaCa-2 cells (20 nM gemcitabine) IC50, with 20 nM gemcitabine, 72 h, intracellular ATP content
[8] = stability in FaSSIF, initial pH 6.52, 37° C.
[9] = stability in FeSSIF, initial pH 4.98, 37° C.
[10] = stability in SGF, initial pH 1.2, 37° C.
[11] = stability in Water, initial pH 7.7, 37° C.
[12] = female, CD-1, plasma, iv, injection 2 mg/kg

## Cc1cc2c(C(N)=O)c(N)n(-c3c(C)c(O)cc(F)c3C)c2nc1C (single isomer, unassigned) [Compound 2]
Recombinant protein MYT1
  IC50: ≤ 0.2 µM
MIA PaCa-2 cells [1]; 72 h
  IC50: 4.32 µM
MIA PaCa-2 cells [2]; [7]
  IC50: 0.018 µM
MIA PaCa-2 cells [2]; with 20 nM gemcitabine
  anti-proliferative activity against MIA PaCa-2 cells in combination with gemcitabine (in words): stronger anti-proliferative activity than that of RP-6306
[3]
  Vdss compared to RP-6306 (in words): greater increase in Vdss compared to RP-6306
  half-life T1/2 compared to RP-6306 (in words): longer half-life T1/2 compared to RP-6306
[3]; injection 2 mg/kg
  AUC0-last: 0.3377 µg·h/mL
  Cl: 5.66 L/h/kg
  T1/2: 3.32 h
  Vdss: 6.76 L/kg
[3]; oral administration 10 mg/kg
  AUC0-last: 0.6382 µg·h/mL
  Cmax: 0.6033 µg/mL
  F %: 44.5%
  T1/2: 3.84 h
MDCK-MDR1
  Papp A-B Mean: 20.50 10^−6 cm · s^−1
  Papp A-B Sample - 01: 21.08 10^−6 cm · s^−1
  Papp A-B Sample - 02: 19.91 10^−6 cm · s^−1
  Papp B-A Mean: 35.01 10^−6 cm · s^−1
  Papp B-A Sample - 01: 35.27 10^−6 cm · s^−1
  Papp B-A Sample - 02: 34.76 10^−6 cm · s^−1
  permeability compared to RP-6306 (in words): superior permeability to that of RP-6306
MDCK-Wild type
  Papp A-B Mean: 27.10 10^−6 cm · s^−1
  Papp A-B Sample - 01: 27.93 10^−6 cm · s^−1
  Papp A-B Sample - 02: 26.28 10^−6 cm · s^−1
  Papp B-A Mean: 42.24 10^−6 cm · s^−1
  Papp B-A Sample - 01: 39.97 10^−6 cm · s^−1
  Papp B-A Sample - 02: 44.50 10^−6 cm · s^−1
  permeability compared to RP-6306 (in words): superior permeability to that of RP-6306
[4]; FaSSIF, FeSSIF, SGF, water, methanol, tetrahydrofuran
  solubility compared to RP-6306 (in words): higher solubility in various vehicles
[4]; FaSSIF, initial pH 6.52, 37° C.
  Solubility 0.5 h: 0.061 mg/mL (≈ 0.178 mM)
[4]; FeSSIF, initial pH 4.98, 37° C.
  Solubility 0.5 h: 0.327 mg/mL (≈ 0.955 mM)
[4]; Methanol
  Solubility 0.5 h: 40.568 mg/mL (≈ 118 mM)
[4]; SGF, initial pH 1.2, 37° C.
  Solubility 0.5 h: 4.865 mg/mL (≈ 14.2 mM)
[4]; Tetrahydrofuran
  Solubility 0.5 h: 6.114 mg/mL (≈ 17.9 mM)
[4]; Water, initial pH 7.7, 37° C.
  Solubility 0.5 h: 0.27 mg/mL (≈ 0.789 mM)
[5]; FaSSIF, FeSSIF, water
  stability compared to RP-6306 (in words): more stable than RP-6306 in FaSSIF, FeSSIF, and water
[5]; [8]
  HPLC purity (%, 220 nm) 0.5 h: 88.76%
[5]; [9]
  HPLC purity (%, 220 nm) 0.5 h: 95.98%
[5]; [10]
  HPLC purity (%, 220 nm) 0.5 h: 98.69%
[5]; [11]
  HPLC purity (%, 220 nm) 0.5 h: 96.4%

## Cc1cc2c(C(N)=O)c(N)n(-c3c(C)ccc(O)c3C)c2nc1C [RP-6306, reference compound]
MIA PaCa-2 cells [2]; Homo sapiens, MIA PaCa-2, 72 h, read-out: Anti-proliferative activity against MIA PaCa-2 cells (20 nM gemcitabine) IC50, with 20 nM gemcitabine, 72 h, intracellular ATP content
  IC50: 0.029 µM
[3]; [12]
  AUC(0-t): 0.376 µg·h/mL
  half-life: 0.56 h
[3]; female, CD-1, plasma, iv, injection 2 mg/kg, read-out: Vdss
  Vd: 2.46 L/kg
[3]; female, CD-1, plasma, oral administration 10 mg/kg
  AUC(0-t): 1.03 µg·h/mL
[3]; female, CD-1, plasma, oral administration 10 mg/kg, read-out: Cmax
  Cmax: 0.881 µg/mL
[3]; injection 2 mg/kg
  Cl: 2.79 L/h/kg
[3]; oral administration 10 mg/kg
  F %: 54.7%
In vitro
  efflux ratio at 90 min, 5 μM: 2.17
In vitro; Papp A-B Mean
  Papp A→B at 90 min, 5 µM: 171 nm/s
In vitro; Papp A-B Sample - 01
  Papp A→B at 90 min, 5 µM: 151 nm/s
In vitro; Papp A-B Sample - 02
  Papp A→B at 90 min, 5 µM: 191 nm/s
In vitro; Papp B-A Mean
  Papp B→A at 90 min, 5 µM: 372 nm/s
In vitro; Papp B-A Sample - 01
  Papp B→A at 90 min, 5 µM: 385 nm/s
In vitro; Papp B-A Sample - 02
  Papp B→A at 90 min, 5 µM: 359 nm/s
[6]; MDCK-MDR1
  efflux ratio at 90 min, 5 μM: 2.64
[6]; MDCK-MDR1, Papp A-B Mean
  Papp A→B at 90 min, 5 µM: 140 nm/s
[6]; MDCK-MDR1, Papp A-B Sample - 01
  Papp A→B at 90 min, 5 µM: 139 nm/s
[6]; MDCK-MDR1, Papp A-B Sample - 02
  Papp A→B at 90 min, 5 µM: 140 nm/s
[6]; MDCK-MDR1, Papp B-A Mean
  Papp B→A at 90 min, 5 µM: 369 nm/s
[6]; MDCK-MDR1, Papp B-A Sample - 01
  Papp B→A at 90 min, 5 µM: 376 nm/s
[6]; MDCK-MDR1, Papp B-A Sample - 02
  Papp B→A at 90 min, 5 µM: 362 nm/s
[4]; Methanol
  solubility at 0.5 h: 20.2 mg/mL (≈ 62.2 mM)
[4]; Tetrahydrofuran
  solubility at 0.5 h: 4.52 mg/mL (≈ 13.9 mM)
[5]; [8]
  HPLC purity (%, 220 nm) 0.5 h: 58.88%
[5]; [9]
  HPLC purity (%, 220 nm) 0.5 h: 74.51%
[5]; [10]
  HPLC purity (%, 220 nm) 0.5 h: 98.18%
[5]; [11]
  HPLC purity (%, 220 nm) 0.5 h: 40.92%

## Cc1ccc(O)c(C)c1-n1c(N)c(C(N)=O)c2cc3c(nc21)CCN(C)C3 [Compound 97]
Recombinant protein MYT1
  IC50: ≤ 0.2 µM
MIA PaCa-2 cells [1]; Homo sapiens, MIA PaCa-2, 72 h
  IC50: > 10 µM
MIA PaCa-2 cells [2]; [7]
  IC50: 0.101 µM

## Cc1cc2c(C(N)=O)c(N)n(-c3c(C)cc(F)c(O)c3C)c2nc1C (single isomer, unassigned) [Compound 7]
Recombinant protein MYT1
  IC50: ≤ 0.2 µM
MIA PaCa-2 cells [1]; 72 h
  IC50: > 10 µM
MIA PaCa-2 cells [2]; [7]
  IC50: > 1 µM
